{
  "source": "patent US20250042900A1",
  "about": "(priority 2022, published 2025)",
  "key": {"serotonin transporter": {"biological_target": "T1, serotonin transporter (Homo sapiens, UniProt P31645)", "T1 construct": "expressed in transfected cells", "assay": "cell-based", "conditions": "SERT, blocker, read-out: IC50 (μM) Antag./Blocker/Inhibitor"}, "COX2": {"biological_target": "T2, COX2 (Homo sapiens, UniProt P35354)", "T2 construct": "purchased BPS Bioscience", "T2 sequence (P35354 18-604)": "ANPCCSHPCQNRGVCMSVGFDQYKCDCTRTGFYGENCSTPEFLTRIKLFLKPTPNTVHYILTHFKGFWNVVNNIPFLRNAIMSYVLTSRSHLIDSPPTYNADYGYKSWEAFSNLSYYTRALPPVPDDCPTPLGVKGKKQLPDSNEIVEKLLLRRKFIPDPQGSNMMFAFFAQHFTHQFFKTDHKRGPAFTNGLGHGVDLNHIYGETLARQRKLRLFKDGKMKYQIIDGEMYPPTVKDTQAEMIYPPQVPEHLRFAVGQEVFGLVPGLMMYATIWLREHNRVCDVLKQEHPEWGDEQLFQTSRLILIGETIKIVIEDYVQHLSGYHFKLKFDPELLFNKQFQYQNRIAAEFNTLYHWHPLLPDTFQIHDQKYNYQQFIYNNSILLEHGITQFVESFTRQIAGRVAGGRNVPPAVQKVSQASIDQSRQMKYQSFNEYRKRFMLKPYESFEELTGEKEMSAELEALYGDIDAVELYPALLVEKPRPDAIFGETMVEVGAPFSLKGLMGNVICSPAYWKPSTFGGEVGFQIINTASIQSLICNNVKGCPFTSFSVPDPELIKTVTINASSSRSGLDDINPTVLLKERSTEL", "assay": "Enzymatic assay COX2", "format": "biochemical", "conditions": "inhibitor, read-out: IC50 (μM) Antag./Blocker/Inhibitor"}, "[1]": {"biological_target": "5-Hydroxytryptamine (Serotonin) Receptor 2B (5-HT2B) (Homo sapiens, UniProt P41595)", "assay": "Calcium flux secondary messenger assay, antagonist format", "format": "cell-based", "conditions": "read-out: IC50 (μM) Antag./Blocker/Inhibitor"}, "[2]": {"biological_target": "T3, 5-Hydroxytryptamine (Serotonin) Receptor 3A (5-HT3A) (Homo sapiens, UniProt P46098)", "T3 construct": "expressed in transfected cells", "assay": "Ion channel assay, blocker format", "format": "cell-based", "conditions": "read-out: IC50 (μM) Antag./Blocker/Inhibitor"}, "[3]": {"biological_target": "T4, 5-Hydroxytryptamine (Serotonin) Receptor 1A (5-HT1A) (Homo sapiens, UniProt P08908)", "T4 construct": "host or cells: cAMP Hunter cell line", "T4 sequence (P08908 whole entry)": "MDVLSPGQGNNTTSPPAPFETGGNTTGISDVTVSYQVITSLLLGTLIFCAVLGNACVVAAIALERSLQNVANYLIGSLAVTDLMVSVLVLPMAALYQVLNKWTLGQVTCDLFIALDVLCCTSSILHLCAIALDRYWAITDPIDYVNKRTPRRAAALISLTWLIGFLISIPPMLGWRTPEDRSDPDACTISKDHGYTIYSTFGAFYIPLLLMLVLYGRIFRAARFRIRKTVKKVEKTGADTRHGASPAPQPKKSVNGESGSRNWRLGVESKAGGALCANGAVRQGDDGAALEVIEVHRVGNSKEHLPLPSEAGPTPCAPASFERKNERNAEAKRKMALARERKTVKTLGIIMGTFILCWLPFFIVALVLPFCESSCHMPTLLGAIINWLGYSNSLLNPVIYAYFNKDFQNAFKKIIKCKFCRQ", "assay": "cAMP secondary messenger assay, agonist format", "format": "cell-based", "conditions": "read-out: EC50 (μM) Agonist/Opener"}, "[4]": {"biological_target": "Adrenergic Receptor α1A (ADRA1A) (Homo sapiens, UniProt P35348)", "assay": "Calcium flux secondary messenger assay, agonist format", "format": "cell-based", "conditions": "read-out: EC50 (μM) Agonist/Opener"}, "[5]": {"biological_target": "Adrenergic Receptor β2 (ADRB2) (Homo sapiens, UniProt P07550)", "assay": "cAMP secondary messenger assay, agonist format", "format": "cell-based", "conditions": "read-out: EC50 (μM) Agonist/Opener"}, "[6]": {"biological_target": "Adrenergic Receptor β1 (ADRB1) (Homo sapiens, UniProt P08588)", "assay": "cAMP secondary messenger assay, agonist format", "format": "cell-based", "conditions": "read-out: EC50 (μM) Agonist/Opener"}, "[7]": {"biological_target": "T5, Arginine Vasopressin Receptor 1A (AVPR1A) (Homo sapiens, UniProt P37288)", "T5 sequence (P37288 whole entry)": "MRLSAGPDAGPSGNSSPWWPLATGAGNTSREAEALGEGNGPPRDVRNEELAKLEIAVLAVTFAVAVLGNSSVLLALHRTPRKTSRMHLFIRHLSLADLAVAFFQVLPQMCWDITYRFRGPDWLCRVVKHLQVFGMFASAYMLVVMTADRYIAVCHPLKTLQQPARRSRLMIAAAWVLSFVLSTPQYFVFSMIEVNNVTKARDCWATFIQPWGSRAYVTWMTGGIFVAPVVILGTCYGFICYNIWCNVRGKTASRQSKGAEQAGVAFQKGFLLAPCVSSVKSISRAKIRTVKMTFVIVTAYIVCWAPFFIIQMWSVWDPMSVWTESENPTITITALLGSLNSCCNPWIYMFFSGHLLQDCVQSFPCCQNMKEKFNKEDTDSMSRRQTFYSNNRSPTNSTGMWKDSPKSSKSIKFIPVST", "assay": "Calcium flux secondary messenger assay, agonist format", "format": "cell-based", "conditions": "read-out: EC50 (μM) Agonist/Opener"}, "[8]": {"biological_target": "T5, Arginine Vasopressin Receptor 1A (AVPR1A)", "assay": "Calcium flux secondary messenger assay, antagonist format", "format": "cell-based", "conditions": "read-out: IC50 (μM) Antag./Blocker/Inhibitor"}, "[9]": {"biological_target": "Cholecystokinin Receptor A (CCKAR) (Homo sapiens, UniProt P32238)", "sequence (P32238 whole entry)": "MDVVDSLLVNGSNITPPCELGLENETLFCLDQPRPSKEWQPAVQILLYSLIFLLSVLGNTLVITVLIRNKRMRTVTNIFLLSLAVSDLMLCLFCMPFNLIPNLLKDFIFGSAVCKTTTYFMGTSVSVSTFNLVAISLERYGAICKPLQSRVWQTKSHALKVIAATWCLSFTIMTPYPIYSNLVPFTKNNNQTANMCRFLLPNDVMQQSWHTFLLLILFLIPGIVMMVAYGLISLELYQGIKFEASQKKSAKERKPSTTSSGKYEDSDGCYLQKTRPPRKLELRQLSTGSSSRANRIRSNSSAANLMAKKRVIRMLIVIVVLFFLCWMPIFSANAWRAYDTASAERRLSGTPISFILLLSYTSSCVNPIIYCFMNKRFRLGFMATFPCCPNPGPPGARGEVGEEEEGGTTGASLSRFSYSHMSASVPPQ", "assay": "Calcium flux secondary messenger assay, agonist format", "format": "cell-based", "conditions": "read-out: EC50 (μM) Agonist/Opener"}, "[10]": {"biological_target": "Muscarinic acetylcholine Receptor M3 (CHRM3) (Homo sapiens, UniProt P20309)", "assay": "cell-based", "conditions": "Calcium Flux, antagonist, read-out: IC50 (μM) Antag./Blocker/Inhibitor"}, "[11]": {"biological_target": "Cannabinoid Receptor 1 (CNR1) (Homo sapiens, UniProt P21554)", "assay": "cAMP secondary messenger assay, agonist format", "format": "cell-based", "conditions": "read-out: EC50 (μM) Agonist/Opener"}, "[12]": {"biological_target": "Cannabinoid Receptor 2 (CNR2) (Homo sapiens, UniProt P34972)", "assay": "cAMP secondary messenger assay, antagonist format", "format": "cell-based", "conditions": "read-out: IC50 (μM) Antag./Blocker/Inhibitor"}, "[13]": {"biological_target": "Dopamine Receptor D1 (DRD1) (Homo sapiens, UniProt P21728)", "assay": "cAMP secondary messenger assay, antagonist format", "format": "cell-based", "conditions": "read-out: IC50 (μM) Antag./Blocker/Inhibitor"}, "[14]": {"biological_target": "Endothelin Receptor Type A (EDNRA) (Homo sapiens, UniProt P25101)", "assay": "Calcium flux secondary messenger assay, antagonist format", "format": "cell-based", "conditions": "read-out: IC50 (μM) Antag./Blocker/Inhibitor"}, "[15]": {"biological_target": "Histamine Receptor H2 (HRH2) (Homo sapiens, UniProt P25021)", "assay": "cAMP secondary messenger assay, agonist format", "format": "cell-based", "conditions": "read-out: EC50 (μM) Agonist/Opener"}, "[16]": {"biological_target": "Opioid Receptor Kappa 1 (OPRK1) (Homo sapiens, UniProt P41145)", "assay": "cAMP secondary messenger assay, antagonist format", "format": "cell-based", "conditions": "read-out: IC50 (μM) Antag./Blocker/Inhibitor"}, "[17]": {"biological_target": "Opioid Receptor Mu (OPRM1) (Homo sapiens, UniProt P35372)", "assay": "cell-based", "conditions": "cAMP, agonist, read-out: EC50 (μM) Agonist/Opener"}, "[18]": {"biological_target": "Nicotinic acetylcholine Receptor α4 β2 (nAChR(a4/b2)) (Homo sapiens, UniProt P17787+P43681)", "assay": "Ion channel assay, blocker format", "format": "cell-based", "conditions": "read-out: IC50 (μM) Antag./Blocker/Inhibitor"}, "KvLQT1/minK [19]": {"biological_target": "T6, KvLQT1/minK (Homo sapiens, UniProt P51787)", "T6 sequence (P51787 whole entry)": "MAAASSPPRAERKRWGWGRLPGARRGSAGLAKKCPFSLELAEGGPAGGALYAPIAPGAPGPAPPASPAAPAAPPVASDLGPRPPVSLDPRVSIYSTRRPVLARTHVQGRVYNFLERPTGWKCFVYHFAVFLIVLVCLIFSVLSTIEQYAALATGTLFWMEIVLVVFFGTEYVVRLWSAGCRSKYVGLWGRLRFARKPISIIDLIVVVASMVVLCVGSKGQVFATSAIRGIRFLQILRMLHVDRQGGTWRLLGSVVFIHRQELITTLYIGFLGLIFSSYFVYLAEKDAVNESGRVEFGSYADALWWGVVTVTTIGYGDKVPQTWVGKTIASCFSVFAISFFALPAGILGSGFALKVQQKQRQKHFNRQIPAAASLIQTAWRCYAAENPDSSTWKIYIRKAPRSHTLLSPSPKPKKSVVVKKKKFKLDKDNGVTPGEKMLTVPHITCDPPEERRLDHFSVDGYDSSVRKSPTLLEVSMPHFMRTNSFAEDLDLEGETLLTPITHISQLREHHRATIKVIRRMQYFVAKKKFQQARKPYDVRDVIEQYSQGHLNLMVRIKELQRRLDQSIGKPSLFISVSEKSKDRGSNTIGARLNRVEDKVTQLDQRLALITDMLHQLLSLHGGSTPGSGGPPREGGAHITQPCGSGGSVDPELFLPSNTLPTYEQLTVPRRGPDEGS", "assay": "Ion channel assay, opener format", "format": "cell-based", "conditions": "read-out: EC50 (μM) Agonist/Opener"}, "KvLQT1/minK [20]": {"biological_target": "T6, KvLQT1/minK", "assay": "Ion channel assay, blocker format", "format": "cell-based", "conditions": "read-out: IC50 (μM) Antag./Blocker/Inhibitor"}, "[21]": {"biological_target": "N-methyl-D-aspartate (NMDA) Glutamate Receptor 1A/2B (NMDAR (1A/2B)) (Homo sapiens, UniProt Q05586+Q13224)", "assay": "Ion channel assay, opener format", "format": "cell-based", "conditions": "read-out: EC50 (μM) Agonist/Opener"}, "[22]": {"biological_target": "T7, Insulin Receptor (tyrosine kinase) (INSR) (Homo sapiens, UniProt P06213)", "T7 construct": "T7 phage fusion (most assays) or DNA tag for qPCR (the remaining kinases); made in house; host or cells: E. coli (BL21-derived, T7 phage display) or HEK-293", "assay": "Kinase binding assay (KINOMEscan)", "conditions": "inhibitor, read-out: IC50 (μM) Antag./Blocker/Inhibitor"}, "[23]": {"biological_target": "T8, Nuclear Hormone Glucocorticoid Receptor (GR) (Homo sapiens, UniProt P04150)", "T8 sequence (P04150 whole entry)": "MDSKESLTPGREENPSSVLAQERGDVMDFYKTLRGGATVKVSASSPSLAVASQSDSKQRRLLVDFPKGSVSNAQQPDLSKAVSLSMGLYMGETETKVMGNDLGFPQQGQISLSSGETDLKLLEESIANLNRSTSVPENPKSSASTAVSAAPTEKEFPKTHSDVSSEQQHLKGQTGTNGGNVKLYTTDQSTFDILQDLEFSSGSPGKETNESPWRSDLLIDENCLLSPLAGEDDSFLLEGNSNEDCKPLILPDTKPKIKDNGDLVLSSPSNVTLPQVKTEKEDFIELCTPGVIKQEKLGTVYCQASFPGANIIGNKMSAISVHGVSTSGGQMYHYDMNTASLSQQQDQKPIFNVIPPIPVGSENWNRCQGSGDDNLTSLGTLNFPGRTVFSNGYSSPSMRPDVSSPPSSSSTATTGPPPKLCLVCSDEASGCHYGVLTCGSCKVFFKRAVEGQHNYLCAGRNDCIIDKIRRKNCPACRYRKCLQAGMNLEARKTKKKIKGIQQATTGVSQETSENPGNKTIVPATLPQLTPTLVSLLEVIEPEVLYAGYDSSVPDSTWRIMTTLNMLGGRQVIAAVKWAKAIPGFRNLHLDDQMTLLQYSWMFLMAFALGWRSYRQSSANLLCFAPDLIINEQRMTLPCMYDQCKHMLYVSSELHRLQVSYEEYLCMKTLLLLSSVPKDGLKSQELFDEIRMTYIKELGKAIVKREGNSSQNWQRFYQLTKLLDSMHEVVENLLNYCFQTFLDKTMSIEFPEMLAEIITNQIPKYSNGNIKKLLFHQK", "assay": "NHR Protein Interaction assay, agonist format", "format": "cell-based", "conditions": "read-out: EC50 (μM) Agonist/Opener"}, "[24]": {"biological_target": "T8, Nuclear Hormone Glucocorticoid Receptor (GR)", "assay": "NHR Protein Interaction assay, antagonist format", "format": "cell-based", "conditions": "read-out: IC50 (μM) Antag./Blocker/Inhibitor"}, "[25]": {"biological_target": "T9, Lymphocyte Cell-Specific Protein-Tyrosine Kinase (Src family) (LCK) (Homo sapiens, UniProt P06239)", "T9 construct": "T7 phage fusion (most assays) or DNA tag for qPCR (the remaining kinases); made in house; host or cells: E. coli (BL21-derived, T7 phage display) or HEK-293", "assay": "Kinase binding assay (KINOMEscan)", "conditions": "inhibitor, read-out: IC50 (μM) Antag./Blocker/Inhibitor"}, "[26]": {"biological_target": "T10, Vascular endothelial growth factor receptor 2 (KDR tyrosine kinase) (VEGFR2) (Homo sapiens, UniProt P35968)", "T10 construct": "T7 phage fusion (most assays) or DNA tag for qPCR (the remaining kinases); made in house; host or cells: E. coli (BL21-derived, T7 phage display) or HEK-293", "T10 sequence (P35968 20-1356)": "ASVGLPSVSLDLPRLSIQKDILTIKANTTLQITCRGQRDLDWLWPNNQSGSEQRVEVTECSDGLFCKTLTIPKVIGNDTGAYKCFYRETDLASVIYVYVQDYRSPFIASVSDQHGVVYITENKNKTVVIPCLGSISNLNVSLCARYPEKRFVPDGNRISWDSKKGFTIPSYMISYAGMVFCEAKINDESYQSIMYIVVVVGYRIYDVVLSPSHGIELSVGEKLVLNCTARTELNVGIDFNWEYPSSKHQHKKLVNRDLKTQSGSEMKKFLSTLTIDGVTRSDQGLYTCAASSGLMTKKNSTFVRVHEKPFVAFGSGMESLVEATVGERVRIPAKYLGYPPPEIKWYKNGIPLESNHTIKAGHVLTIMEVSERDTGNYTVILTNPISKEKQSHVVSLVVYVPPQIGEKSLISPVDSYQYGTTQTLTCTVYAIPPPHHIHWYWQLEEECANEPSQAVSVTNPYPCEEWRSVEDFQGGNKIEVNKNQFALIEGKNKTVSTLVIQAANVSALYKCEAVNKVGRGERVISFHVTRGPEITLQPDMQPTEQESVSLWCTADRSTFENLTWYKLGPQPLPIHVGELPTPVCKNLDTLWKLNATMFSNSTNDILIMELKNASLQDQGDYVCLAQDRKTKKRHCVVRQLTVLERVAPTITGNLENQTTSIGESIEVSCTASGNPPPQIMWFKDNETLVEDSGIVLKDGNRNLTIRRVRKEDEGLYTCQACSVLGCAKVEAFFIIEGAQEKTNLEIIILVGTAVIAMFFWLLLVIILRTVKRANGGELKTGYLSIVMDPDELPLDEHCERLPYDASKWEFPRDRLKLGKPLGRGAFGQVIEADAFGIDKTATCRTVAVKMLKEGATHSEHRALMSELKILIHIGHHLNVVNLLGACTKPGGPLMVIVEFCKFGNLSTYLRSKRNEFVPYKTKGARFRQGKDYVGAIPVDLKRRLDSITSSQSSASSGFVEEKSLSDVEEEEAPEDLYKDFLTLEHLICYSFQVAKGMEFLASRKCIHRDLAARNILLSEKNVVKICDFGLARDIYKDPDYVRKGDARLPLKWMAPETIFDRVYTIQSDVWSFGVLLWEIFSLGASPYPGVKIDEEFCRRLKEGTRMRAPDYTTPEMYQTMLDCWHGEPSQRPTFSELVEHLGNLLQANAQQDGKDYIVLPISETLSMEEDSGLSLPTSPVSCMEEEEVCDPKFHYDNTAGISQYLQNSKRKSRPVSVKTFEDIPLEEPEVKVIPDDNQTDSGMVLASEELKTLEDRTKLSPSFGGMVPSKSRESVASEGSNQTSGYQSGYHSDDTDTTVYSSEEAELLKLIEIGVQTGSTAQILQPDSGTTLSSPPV", "assay": "biochemical", "conditions": "Binding, inhibitor, read-out: IC50 (μM) Antag./Blocker/Inhibitor"}, "[27]": {"biological_target": "NAV1.5 (tetrodotoxin-resistant voltage-gated sodium channel) (Homo sapiens, UniProt Q14524)", "assay": "cell-based"}, "dopamine transporter": {"biological_target": "dopamine transporter (Homo sapiens, UniProt Q01959)", "assay": "Monoamine transporter uptake assay (Neurotransmitter Transporter Uptake Assay Kit), blocker format"}, "[28]": {"biological_target": "norepinephrine transporter (Homo sapiens, UniProt P23975)", "assay": "Monoamine transporter uptake assay (Neurotransmitter Transporter Uptake Assay Kit), blocker format"}},
  "note": "Structures can show the parent of a compound that is named as a salt.",
  "data": [
    {"smiles": "CN(C)CCc1ccn2ccccc12", "note": "[28-12 oxalate, 2-(indolizin-1-yl)-N, N-dimethylethan-1-amine oxalate]", "values": [
      {"measurement": "IC50", "setting": "serotonin transporter", "value": "> 30", "unit": "µM"},
      {"measurement": "IC50", "setting": "COX2", "value": "> 30", "unit": "µM"},
      {"measurement": "IC50", "setting": "[1]", "value": 3.28, "unit": "µM"},
      {"measurement": "IC50", "setting": "[2]", "value": 7.82, "unit": "µM"},
      {"measurement": "EC50", "setting": "[3]", "value": "> 30", "unit": "µM"},
      {"measurement": "EC50", "setting": "[4]", "value": "> 30", "unit": "µM"},
      {"measurement": "EC50", "setting": "[5]", "value": "> 30", "unit": "µM"},
      {"measurement": "EC50", "setting": "[6]", "value": "> 30", "unit": "µM"},
      {"measurement": "EC50", "setting": "[7]", "value": "> 30", "unit": "µM"},
      {"measurement": "IC50", "setting": "[8]", "value": "> 30", "unit": "µM"},
      {"measurement": "EC50", "setting": "[9]", "value": "> 30", "unit": "µM"},
      {"measurement": "IC50", "setting": "[10]", "value": "> 30", "unit": "µM"},
      {"measurement": "EC50", "setting": "[11]", "value": "> 30", "unit": "µM"},
      {"measurement": "IC50", "setting": "[12]", "value": "> 30", "unit": "µM"},
      {"measurement": "IC50", "setting": "[13]", "value": "> 30", "unit": "µM"},
      {"measurement": "IC50", "setting": "[14]", "value": "> 30", "unit": "µM"},
      {"measurement": "EC50", "setting": "[15]", "value": "> 30", "unit": "µM"},
      {"measurement": "IC50", "setting": "[16]", "value": "> 30", "unit": "µM"},
      {"measurement": "EC50", "setting": "[17]", "value": "> 30", "unit": "µM"},
      {"measurement": "IC50", "setting": "[18]", "value": "> 30", "unit": "µM"},
      {"measurement": "EC50", "setting": "KvLQT1/minK [19]", "value": "> 30", "unit": "µM"},
      {"measurement": "IC50", "setting": "KvLQT1/minK [20]", "value": "> 30", "unit": "µM"},
      {"measurement": "EC50", "setting": "[21]", "value": "> 30", "unit": "µM"},
      {"measurement": "IC50", "setting": "[22]", "value": "> 30", "unit": "µM"},
      {"measurement": "EC50", "setting": "[23]", "value": "> 30", "unit": "µM"},
      {"measurement": "IC50", "setting": "[24]", "value": 17.1, "unit": "µM"},
      {"measurement": "IC50", "setting": "[25]", "value": "> 30", "unit": "µM"},
      {"measurement": "IC50", "setting": "[26]", "value": "> 30", "unit": "µM"},
      {"measurement": "IC50", "setting": "[27]", "value": "> 30", "unit": "µM"},
      {"measurement": "IC50", "setting": "dopamine transporter", "value": "> 30", "unit": "µM"},
      {"measurement": "IC50", "setting": "[28]", "value": "> 30", "unit": "µM"}
    ]}
  ]
}
